# Like-named read-outs stand apart in the source and are kept apart here.
# Key:
# [1] = system: KKA^y mice; assay: Total cholesterol lowering action and plasma anti-arteriosclerosis index-enhancing action in mice; assay type: in vivo; conditions: four days, non-treatment group taken as 100%; for change in vivo at 0.005 % / inhibition in vivo at 0.005 % / change in vivo at 0.001 % / inhibition in vivo at 0.001 %: Mus musculus, po, 96 h; for change in vivo at 0.005 % / inhibition in vivo at 0.005 %: 0.005% in powdery diet; for change in vivo at 0.005 % / change in vivo at 0.001 %: read-out: Plasma anti-arteriosclerosis index-enchancing action (%)
# Description: Total Cholesterol Lowering Action and Plasma Anti-Arteriosclerosis Index-Enhancing Action in Mice
# Test compounds were mixed in a powdery diet (CE-2, Japan Clea) at the concentration of 0.01% (compounds of Examples 12, 30, 89), 0.005% (compounds of Examples 38, 40, 44, 181, 184, 262, 283), or 0.001% (compounds of Examples 9, 156, 167, 172, 174, 176, 189), and freely given to KKA^y mice (9 to 12 weeks old, 5 mice per group), a model of obese and type 2 diabetes mellitus, for four days. During this period, water was given freely. Blood was sampled from orbital venous plexus and plasma was separated. Total cholesterol levels were determined by using L type Wako Cholesterol (Wako Pure Chemical Industries, Ltd.). Precipitation reagent for apoB containing lipoprotein was added to a part of the plasma to precipitate non-HDL lipoprotein, and cholesterol (HDL cholesterol) in the resulting supernatant was determined. The plasma anti-arteriosclerosis index [(HDL cholesterol/total cholesterol)×100] was calculated by using these cholesterol levels.
# In the Table, “Total cholesterol lowering action (%)” represents the percent reduction (%) of total cholesterol level in the treatment group, when the total cholesterol level in the non-treatment group is taken as 100%. “Plasma anti-arteriosclerosis index-enhancing action (%)” represents the percent increase (%) of plasma anti-arteriosclerosis index in the treatment group, when the plasma anti-arteriosclerosis index in the non-treatment group is taken as 100%.
# [2] = system: KKA^y mice; assay: Hypoglycemic and hypolipidemic actions in mice; assay type: in vivo; conditions: four days; for inhibition in vivo at 0.005 % / inhibition in vivo at 0.001 % / inhibition in vivo at 0.01 %: Mus musculus, po, 96 h; for inhibition in vivo at 0.005 %: 0.005% in powdery diet; for inhibition in vivo at 0.01 %: 0.01% in powdery diet
# Description: Hypoglycemic and Hypolipidemic Actions in Mice
# Test compounds were mixed in a powdery diet (CE-2, Japan Clea) at the concentration of 0.01% (compounds of Examples 12, 30, 89, 186), 0.005% (compounds of Examples 7, 80, 82, 181, 182, 184, 256, 262, 283), 0.001% (compounds of Examples 9, 104, 110, 155, 156, 160, 167, 169, 172, 174, 176, 189), or 0.0003% (compounds of Examples 38, 40, 44), and freely given to KKA^y mice (9 to 12 weeks old, 5 mice in a group), a model of obese and type 2 diabetes mellitus, for four days. During this period, water was given freely. Blood was sampled from orbital venous plexus, and glucose and triglyceride levels in plasma separated from blood were determined enzymatically using L type Wako Glu2 (Wako Pure Chemical Industries, Ltd.) or L type Wako TG•H (Wako Pure Chemical Industries, Ltd.), respectively.
# In the Table, the value of each treatment group is represented as percent reduction compared with the non-treatment group.
# [3] = percent increase of [(HDL cholesterol/total cholesterol)×100]
# [4] = percent reduction of plasma total cholesterol
# [5] = percent reduction of plasma glucose compared with the non-treatment group, read-out: Hypoglycemic action (%)
# [6] = percent reduction of plasma triglyceride compared with the non-treatment group, read-out: Hypolipidemic action (%)
# [7] = 0.001% in powdery diet, percent increase of [(HDL cholesterol/total cholesterol)×100]
# [8] = 0.001% in powdery diet, percent reduction of plasma total cholesterol
# [9] = 0.001% in powdery diet, percent reduction of plasma glucose compared with the non-treatment group, read-out: Hypoglycemic action (%)
# [10] = 0.001% in powdery diet, percent reduction of plasma triglyceride compared with the non-treatment group, read-out: Hypolipidemic action (%)
compound,measurement,setting,value
"CCOc1nn(Cc2ccc(OCc3csc(-c4ccccc4)n3)cc2)cc1CCC(=O)O [Example 181, 3-[3-ethoxy-1-[4-(2-phenyl-4-thiazolylmethoxy)benzyl]-1H-pyrazol-4-yl]propionic acid]",change in vivo at 0.005 %,[1]; [3],21%
same,inhibition in vivo at 0.005 %,[1]; [4],25%
same,inhibition in vivo at 0.005 %,[2]; [5],56%
same,inhibition in vivo at 0.005 %,[2]; [6],63%
"CCOc1nn(Cc2ccc(OCc3nc(-c4ccccc4)oc3C)nc2)cc1CCC(=O)O [Example 184, 3-[3-ethoxy-1-[2-(5-methyl-2-phenyl-4-oxazolylmethoxy)-5-pyridylmethyl]-1H-pyrazol-4-yl]propionic acid]",change in vivo at 0.005 %,[1]; [3],17%
same,inhibition in vivo at 0.005 %,[1]; [4],27%
same,inhibition in vivo at 0.005 %,[2]; [5],56%
same,inhibition in vivo at 0.005 %,[2]; [6],82%
"CCOc1nn(Cc2ccc(OCc3nc(-c4ccco4)oc3C)cc2)cc1CCC(=O)O [Example 167, 3-[3-ethoxy-1-[4-[2-(2-furyl)-5-methyl-4-oxazolylmethoxy]benzyl]-1H-pyrazol-4-yl]propionic acid]",change in vivo at 0.001 %,[1]; [7],9%
same,inhibition in vivo at 0.001 %,[1]; [8],19%
same,inhibition in vivo at 0.001 %,[2]; [9],48%
same,inhibition in vivo at 0.001 %,[2]; [10],60%
"CCOc1nn(Cc2ccc(OCc3coc(-c4ccccc4)n3)cc2)cc1CCC(=O)O [Example 186, 3-[3-ethoxy-1-[4-(2-phenyl-4-oxazolylmethoxy)benzyl]-1H-pyrazol-4-yl]propionic acid]",inhibition in vivo at 0.01 %,[2]; [5],57%
same,inhibition in vivo at 0.01 %,[2]; [6],78%
"CCOc1nn(Cc2ccc(OCc3nc(-c4ccccc4)oc3C)cc2)cc1CCC(=O)O [Example 155, 3-[3-ethoxy-1-[4-(5-methyl-2-phenyl-4-oxazolylmethoxy)benzyl]-1H-pyrazol-4-yl]propionic acid]",inhibition in vivo at 0.001 %,[2]; [9],49%
same,inhibition in vivo at 0.001 %,[2]; [10],56%
"CCCOc1nn(Cc2ccc(OCc3nc(-c4ccccc4)oc3C)cc2)cc1CCC(=O)O [Example 156, 3-[1-[4-(5-methyl-2-phenyl-4-oxazolylmethoxy)benzyl]-3-propyloxy-1H-pyrazol-4-yl]propionic acid]",change in vivo at 0.001 %,[1]; [7],15%
same,inhibition in vivo at 0.001 %,[1]; [8],20%
same,inhibition in vivo at 0.001 %,[2]; [9],45%
same,inhibition in vivo at 0.001 %,[2]; [10],80%
CCOc1nn(Cc2ccc(OCc3nc(-c4cccs4)oc3C)c(OC)c2)cc1CCC(=O)O [Example 176],Plasma anti-arteriosclerosis index-enchancing action (%),[1]; [7],11%
same,Total cholesterol lowering action (%),[1]; [8],23%
same,Hypoglycemic action (%),"[2]; 0.001% in powdery diet, percent reduction of plasma glucose compared with the non-treatment group",40%
same,Hypolipidemic action (%),"[2]; 0.001% in powdery diet, percent reduction of plasma triglyceride compared with the non-treatment group",66%
"CCOc1nn(Cc2ccc(OCc3nc(-c4ccccc4)sc3C)cc2)cc1CCC(=O)O [Example 182, 3-[3-ethoxy-1-[4-(5-methyl-2-phenyl-4-thiazolylmethoxy)benzyl]-1H-pyrazol-4-yl]propionic acid]",inhibition in vivo at 0.005 %,[2]; [5],34%
same,inhibition in vivo at 0.005 %,[2]; [6],12%
"Cc1oc(-c2ccco2)nc1COc1ccc(Cn2cc(CCC(=O)O)c(OCc3ccccc3)n2)cc1 [Example 169, 3-[3-benzyloxy-1-[4-[2-(2-furyl)-5-methyl-4-oxazolylmethoxy]benzyl]-1H-pyrazol-4-yl]propionic acid]",inhibition in vivo at 0.001 %,[2]; [9],48%
same,inhibition in vivo at 0.001 %,[2]; [10],39%
"Cc1oc(-c2ccccc2)nc1COc1ccc(Cn2cc(CCC(=O)O)c(OCc3ccccc3)n2)cc1 [Example 160, 3-[3-benzyloxy-1-[4-(5-methyl-2-phenyl-4-oxazolylmethoxy)benzyl]-1H-pyrazol-4-yl]propionic acid]",melting point,,108 to 109 °C
same,inhibition in vivo at 0.001 %,[2]; [9],54%
same,inhibition in vivo at 0.001 %,[2]; [10],57%
"CCOc1nn(Cc2ccc(OCc3nc(-c4ccco4)oc3C)c(OC)c2)cc1CCC(=O)O [Example 174, 3-[3-ethoxy-1-[4-[2-(2-furyl)-5-methyl-4-oxazolylmethoxy]-3-methoxybenzyl]-1H-pyrazol-4-yl]propionic acid]",change in vivo at 0.001 %,[1]; [7],10%
same,inhibition in vivo at 0.001 %,[1]; [8],19%
same,inhibition in vivo at 0.001 %,[2]; [9],40%
same,inhibition in vivo at 0.001 %,[2]; [10],52%
"CCOc1nn(Cc2ccc(OCc3nc(-c4ccccc4)oc3C)c(OC)c2)cc1CCC(=O)O [Example 172, 3-[3-ethoxy-1-[3-methoxy-4-(5-methyl-2-phenyl-4-oxazolylmethoxy)benzyl]-1H-pyrazol-4-yl]propionic acid]",change in vivo at 0.001 %,[1]; [7],11%
same,inhibition in vivo at 0.001 %,[1]; [8],20%
same,inhibition in vivo at 0.001 %,[2]; [9],42%
same,inhibition in vivo at 0.001 %,[2]; [10],62%
"CCOc1nn(Cc2ccc(OCc3nc(-c4ccccc4)oc3C)cc2)cc1CC(=O)O [Example 260, 3-ethoxy-1-[4-(5-methyl-2-phenyl-4-oxazolylmethoxy)benzyl]-1H-pyrazol-4-ylacetic acid]",melting point,,125 to 126 °C
"CCOc1nn(Cc2cccc(OCCn3ncc4ccccc4c3=O)c2)cc1CCC(=O)O [Example 221, 3-[3-ethoxy-1-[3-[2-[1-oxophthalazin-2(1H)-yl]ethoxy]benzyl]-1H-pyrazol-4-yl]propionic acid]",melting point,,146 to 147 °C
"CCOc1cc(Cn2cc(CCC(=O)O)c(-c3ccccc3)c2)cc(OCc2csc(-c3cnccn3)n2)c1 [Example 73, 3-[1-[3-ethoxy-5-[2-(2-pyrazinyl)-4-thiazolylmethoxy]benzyl]-4-phenyl-3-pyrrolyl]propionic acid]",melting point,,97 to 98 °C
"CCOc1nn(Cc2ccc(OCc3nc(-c4cccs4)oc3C)cc2)cc1CCC(=O)O [Example 189, 3-[3-ethoxy-1-[4-[5-methyl-2-(2-thienyl)-4-oxazolylmethoxy]benzyl]-1H-pyrazol-4-yl]propionic acid]",change in vivo at 0.001 %,[1]; [7],20%
same,inhibition in vivo at 0.001 %,[1]; [8],21%
same,inhibition in vivo at 0.001 %,[2]; [9],44%
same,inhibition in vivo at 0.001 %,[2]; [10],75%
"O=C(O)CCc1cn(Cc2ccc(OCc3ccc(-c4ccccc4)cn3)cc2)nc1-c1ccc(F)cc1 [Example 296, 3-[3-(4-fluorophenyl)-1-[4-(5-phenyl-2-pyridylmethoxy)benzyl]-1H-pyrazol-4-yl]propionic acid]",melting point,,162 to 163 °C
"CCOC(=O)Cc1cn(Cc2ccc(OCc3csc(-c4ccccc4)n3)nc2)nc1-c1ccccc1 [Example 309, ethyl(3-phenyl-1-[6-(2-phenyl-4-thiazolylmethoxy)-3-pyridylmethyl]-1H-pyrazol-4-yl]acetate]",melting point,,75 to 76 °C
"CCOC(=O)/C=C/c1cn(Cc2ccc3cc(OCc4ccccc4)ccc3c2)cc1-c1ccccc1 [Example 52, ethyl(E)-3-[1-(6-benzyloxy-2-naphthylmethyl)-4-phenyl-3-pyrrolyl]propenoate]",melting point,,119 to 120 °C

# Reference: patent publication US7179823B1, “5-membered n-heterocyclic compounds with hypoglycemic and hypolipidemic activity” (Takeda Pharmaceutical Company Limited, priority 1999, dated 2007)
